Measurements reported in PMC12061717, “Molecular characterization of a Minus-C odorant-binding protein from Cyrtotrachelus buqueti (Coleoptera: Curculionidae)” (Frontiers in Physiology, 2025).
Like-named read-outs stand apart in the source and are kept apart here.

Experiments:
[1] = molecular target: T1, CbuqOBP1 (Cyrtotrachelus buqueti, UniProt A0A1L3KPS8); experiment: Fluorescence competition binding assay with 1-NPN as probe; settings: for Ki: K i = [IC50]/(1 + [1-NPN]/K 1-NPN), CbuqOBP1 and 1-NPN both 2 μM, pH 7.4
T1 sequence (A0A1L3KPS8 entry or part of it): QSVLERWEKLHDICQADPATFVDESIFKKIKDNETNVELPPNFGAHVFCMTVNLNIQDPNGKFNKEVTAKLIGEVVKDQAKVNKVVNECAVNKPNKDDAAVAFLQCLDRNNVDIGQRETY
Procedure: (§1) The fluorescence competition binding assays were carried out with a F-7000 fluorescence spectrophotometer (Hitachi, Tokyo, Japan) at room temperature using a 1 cm wide light-path fluorimeter quartz cuvette and 10 nm slits for both excitation and emission. The purified CbuqOBP1 was dissolved in 50 mM Tris–HCl buffer (pH 7.4) to a final concentration of 2 μM, while all ligands used in binding experiments were dissolved in chromatographic methanol to a final concentration of 1 mM.
N-phenyl-1-naphthylamine (1-NPN) (Aladdin Biochemical Technology Co., LTD., Shanghai, China) was used as the fluorescent probe. The probe was excited at 337 nm and emission spectra were recorded between 350 and 550 nm.
Based on the above studies, a total of nine candidate volatiles were selected as test ligands, including eight volatiles emitted by female adults of C. buqueti and the linalool released from the host plant N. affinis (Table 1). All these compounds were purchased from Aladdin Biochemical Technology Co., LTD. (Shanghai, China) with a purity of at least more than 90%. […] Binding data were collected as three independent measurements.

[2] = molecular target: T1, CbuqOBP1; experiment: Binding of fluorescent probe 1-NPN to CbuqOBP1 (titration, Scatchard plot); settings: 2 μM protein titrated with 1-NPN 2 to 40 μM, read-out: K 1-NPN (dissociation constant of CbuqOBP1/1-NPN complex)
Procedure: as §1
N-phenyl-1-naphthylamine (1-NPN) (Aladdin Biochemical Technology Co., LTD., Shanghai, China) was used as the fluorescent probe. The probe was excited at 337 nm and emission spectra were recorded between 350 and 550 nm. […] Assuming that 1-NPN binds to the protein at a 1:1 ratio and that the protein was 100% active, a Scatchard plot analysis of the binding data was performed to calculate the dissociation constant (K d) of CbuqOBP1 with 1-NPN.

[3] = tested on: C. buqueti adults; design: method as in Cai, 2018; settings: previous behavioral studies; ref Cai, 2018; cited from earlier work
[4] = tested on: Xylotrechus rusticus (Coleoptera) adults; design: method as in Li L. et al., 2013; Chen et al., 2014; settings: ref Li L. et al., 2013; Chen et al., 2014; cited from earlier work
[5] = tested on: Bradysia odoriphaga (Diptera) adults; design: method as in Li L. et al., 2013; Chen et al., 2014; settings: ref Li L. et al., 2013; Chen et al., 2014; cited from earlier work
[6] = recombinant CbuqOBP1 and 1-NPN both 2 μM, 50 mM Tris-HCl pH 7.4, room temperature, read-out: IC50

Question: With C=C(C)[C@H]1CC=C(C)CC1 [(+)-Limonene] as the compound, how does the IC50 [1] read?
Answer: The IC50 was 18.8 µM.

Question: With C=CC(C)(O)CCC=C(C)C (stereo not shown) [Linalool] as the compound, how does the IC50 [1] read?
Answer: The IC50 was 14.5 µM.

Question: Which IC50 [1] does the source give for C=Cc1ccccc1 [Styrene] here?
Answer: Its IC50 is 22.1 µM.

Question: With c1ccc(Nc2cccc3ccccc23)cc1 [1-NPN, N-phenyl-1-naphthylamine] as the compound, how does the Kd [2] read?
Answer: Its Kd is 24.2 µM.

Question: For Oc1ccccc1 [Phenol], which attractant for adults [3] is on record?
Answer: Its attractant for adults is “efficient attractants”.

Question: And the IC50 [1]?
Answer: The IC50 was 11.4 µM.

Question: Which IC50 [1] does the source give for Cc1cccc(C)c1 [M-xylene] here?
Answer: The IC50 was 36 µM.

Question: For CCCCCC(=O)OCC [Ethyl hexanoate], which Ki [1] is on record?
Answer: The Ki was 19.5 µM.

Question: And the IC50 [1, 6]?
Answer: The IC50 was 21 µM.

Question: Which results are given for CCCC/C=C/C=C/C=O [trans,trans-2,4-Nonadienal]?
Answer: Ki [1]: 22.4 µM; IC50 [1, 6]: 24.3 µM

Question: For C[C@@H]1CC[C@H]2C(C)(C)[C@H]3C[C@@]12CC[C@@]3(C)O [Cedrol], which IC50 [1] is on record?
Answer: The IC50 was 40.3 µM.

Question: Which results are given for c1ccc2scnc2c1 [Benzothiazole]?
Answer: attractiveness to adults [4]: highly attractive; attractiveness to adults [5]: highly attractive; attractant for adults [3]: efficient attractants; IC50 [1]: 12 µM
